Measurements from article PMC4571936, “Pre-steady-state Kinetic Analysis of a Family D DNA Polymerase from Thermococcus sp. 9°N Reveals Mechanisms for Archaeal Genomic Replication and Maintenance” (The Journal of Biological Chemistry, 2015).

How the values were obtained:
[1] = target: T1, 9°N polD^− (exonuclease-deficient polD mutant H554A); test: pre-steady-state single-turnover nucleotide incorporation, rapid chemical quench, capillary electrophoresis; type: biochemical, Thermococcus sp. 9°N; details: apparent Kd, correct pairing, 2 mM MgSO4, ThermoPol buffer pH 8.8 (at 25 °C), 60 °C
T1 construct: gene polC; recombinant purified heterodimer of large and small subunit, ~1:1; with DNA polymerase II small subunit

[2] = target: T1, 9°N polD^− (exonuclease-deficient polD mutant H554A); test: pre-steady-state single-turnover nucleotide incorporation, rapid chemical quench, denaturing gel electrophoresis; type: biochemical, Thermococcus sp. 9°N; details: apparent Kd; correct pairing, template G with 5'-FAM 50-mer primer; 2 mM MgSO4, ThermoPol buffer pH 8.8 (at 25 °C), 60 °C

Question: Which Kd ([1]; template T with 5'-FAM 50-mer primer) does the source give for `Nc1ncnc2c1ncn2[C@H]1C[C@H](O)[C@@H](COP(=O)(O)OP(=O)(O)OP(=O)(O)O)O1` [dATP] here?
Answer: The Kd was 2500 ± 100 nM.

Question: Which Kd ([1]; A Template-1 with 5'-FAM 50-mer primer) does the source give for `Cc1cn([C@H]2C[C@H](O)[C@@H](COP(=O)(O)OP(=O)(O)OP(=O)(O)O)O2)c(=O)[nH]c1=O` [dTTP] here?
Answer: Its Kd is 1600 ± 100 nM.

Question: With `Nc1ccn([C@H]2C[C@H](O)[C@@H](COP(=O)(O)OP(=O)(O)OP(=O)(O)O)O2)c(=O)n1` [dCTP] as the compound, how does the Kd [2] read?
Answer: Its Kd is 1700 ± 100 nM.

Question: `Nc1nc2c(ncn2[C@H]2C[C@H](O)[C@@H](COP(=O)(O)OP(=O)(O)OP(=O)(O)O)O2)c(=O)[nH]1` [dGTP] was tested. Which Kd ([1]; template C with 5'-FAM 50-mer primer) did it give?
Answer: The Kd was 900 ± 300 nM.
